Measured values from patent US20240024402A1, “COMPOSITION FOR IMPROVING INSULIN SENSITIVITY, CONTAINING GENTIANA TRIFLORAL PALLAS EXTRACT” (MTHERA PHARMA CO., LTD., priority 2020, published 2024).

Test system: ogt mRNA
Assay: ogt mRNA expression in HepG2 cells cultured with glucose, MGO and other sugars/aldehydes
Assay type: cell-based
Settings: MGO, 24 hours
Protocol: The HepG2 cells were cultured in a cell culture medium containing glucose, fructose, methylglyoxal (MGO), glyoxal (GO), glyceraldehyde 3-phosphate (G3P), glyceraldehyde, and glycolaldehyde for 24 hours, respectively, and the expression level of ogt mRNA was measured and shown in FIG. 5.

CC(=O)C=O [MGO, methylglyoxal]
ogt mRNA expression compared to the control group: increased nearly twice
